The values that follow come from PubChem BioAssay AID256 (DTP/NCI, 2004).

The experiment relates to CD2F1 mice, L1210 leukemia ip, survival T/C. Kind of experiment: NCI In Vivo Anticancer Drug Screen. Data for tumor model L1210 Leukemia (intraperitoneal) in CD2F1 (CDF1) mice. The following applies: higher = longer survival. The method in brief:
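Activity against a transplanted murine tumor was judged by comparing the compound group with a vehicle group. The outcome in the treated animals was divided by that in the controls.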

The mark [1] stands for this setting: endpoint: mean survival time, dose: 100.0 mg/kg/injection, schedule: Q04DX003 (ip), vehicle: Klucel (hydroxypropylcellulose) (HPC).
The mark [2] stands for this setting: endpoint: mean survival time, dose: 200.0 mg/kg/injection, schedule: Q04DX003 (ip), vehicle: Klucel (hydroxypropylcellulose) (HPC).

Where “and” joins values, the source holds several entries; their conditions need not be identical. Equal values may be shown once. Inconclusive results and toxic doses are left out.

On to `ClCc1ccc(Cl)c(Cl)c1`, for which the T/C under setting [1] is 102 % of control; the T/C under setting [2] is 102 % of control; the T/C (endpoint: mean survival time, dose: 400.0 mg/kg/injection, schedule: Q04DX003 (ip), vehicle: Klucel (hydroxypropylcellulose) (HPC)) is 102 % of control.

Regarding `CC(=O)OC1COC(n2c(O)c(N=NC(N)=S)c3cc([N+](=O)[O-])ccc32)C(OC(C)=O)C1OC(C)=O` (configuration not stated), the T/C was 96 % of control (endpoint: mean survival time, dose: 12.5 mg/kg/injection, schedule: Q01DX005 (ip), vehicle: other); 96 % of control (endpoint: mean survival time, dose: 25.0 mg/kg/injection, schedule: Q01DX005 (ip), vehicle: other); 92 % of control (endpoint: mean survival time, dose: 50.0 mg/kg/injection, schedule: Q01DX005 (ip), vehicle: other); 88 % of control (endpoint: mean survival time, dose: 100.0 mg/kg/injection, schedule: Q01DX005 (ip), vehicle: other).

Consider `CSc1nc(NC2OC(CO)C(O)C(O)C2O)cc(=O)[nH]1` (configuration not stated), for which the T/C (endpoint: median survival time, dose: 12.5 mg/kg/injection, schedule: Q01DX005 (ip), vehicle: saline) was 102 % of control; the T/C (endpoint: median survival time, dose: 25.0 mg/kg/injection, schedule: Q01DX005 (ip), vehicle: saline) was 100 % of control; the T/C (endpoint: median survival time, dose: 50.0 mg/kg/injection, schedule: Q01DX005 (ip), vehicle: saline) was 100 % of control; the T/C (endpoint: median survival time, dose: 100.0 mg/kg/injection, schedule: Q01DX005 (ip), vehicle: saline) was 100 % of control; the T/C (endpoint: median survival time, dose: 200.0 mg/kg/injection, schedule: Q01DX005 (ip), vehicle: saline) was 102 % of control.

`CC1COC(C(=O)O)(c2ccccc2)O1` (configuration not stated): the T/C is 96 % of control (endpoint: mean survival time, dose: 100.0 mg/kg/injection, schedule: Q04DX002 (ip), vehicle: saline); 108 % of control (endpoint: mean survival time, dose: 200.0 mg/kg/injection, schedule: Q04DX002 (ip), vehicle: saline); 100 % of control (endpoint: mean survival time, dose: 400.0 mg/kg/injection, schedule: Q04DX002 (ip), vehicle: saline).

`COc1nn(O)cc2cc(C(=O)O)nc1-2`: the T/C reads like this: (endpoint: mean survival time, dose: 12.5 mg/kg/injection, schedule: Q04DX002 (ip), vehicle: saline with Tween-80) 104 % of control; (endpoint: mean survival time, dose: 25.0 mg/kg/injection, schedule: Q04DX002 (ip), vehicle: saline with Tween-80) 104 % of control; (endpoint: mean survival time, dose: 50.0 mg/kg/injection, schedule: Q04DX002 (ip), vehicle: saline with Tween-80) 101 % of control.

Regarding `NC(=O)c1c(F)c(F)c(Oc2c(F)c(F)c(Oc3c(F)c(F)c(C(N)=O)c(F)c3F)c(F)c2F)c(F)c1F`, the T/C is 103 % of control (endpoint: mean survival time, dose: 12.5 mg/kg/injection, schedule: Q01DX009 (ip), vehicle: saline with Tween-80); 101 % of control (endpoint: mean survival time, dose: 12.5 mg/kg/injection, schedule: Q04DX003 (ip), vehicle: saline with Tween-80); 100 % of control (endpoint: mean survival time, dose: 25.0 mg/kg/injection, schedule: Q01DX009 (ip), vehicle: saline with Tween-80); 101 % of control (endpoint: mean survival time, dose: 25.0 mg/kg/injection, schedule: Q04DX003 (ip), vehicle: saline with Tween-80); 101 % of control (endpoint: mean survival time, dose: 50.0 mg/kg/injection, schedule: Q01DX009 (ip), vehicle: saline with Tween-80); 98 % of control (endpoint: mean survival time, dose: 50.0 mg/kg/injection, schedule: Q04DX003 (ip), vehicle: saline with Tween-80).

On to `CC(C)=C(c1ccccc1)c1c(N)ncnc1Cl`, for which the T/C was 97 % of control (endpoint: mean survival time, dose: 100.0 mg/kg/injection, schedule: Q01DX001 (ip), vehicle: saline); 95 % of control (endpoint: mean survival time, dose: 200.0 mg/kg/injection, schedule: Q01DX001 (ip), vehicle: saline); 100 % of control (endpoint: mean survival time, dose: 400.0 mg/kg/injection, schedule: Q01DX001 (ip), vehicle: saline).

`CC12CCC(=O)C=C1CCC1C2CCC2(C)C(C(=O)Cn3c(=O)[nH]cc(F)c3=O)CCC12` (configuration not stated): the T/C is 94 % of control (endpoint: mean survival time, dose: 12.5 mg/kg/injection, schedule: Q04DX003 (ip), vehicle: Klucel (hydroxypropylcellulose) (HPC)); 94 % of control (endpoint: mean survival time, dose: 25.0 mg/kg/injection, schedule: Q04DX003 (ip), vehicle: Klucel (hydroxypropylcellulose) (HPC)); 97 % of control (endpoint: mean survival time, dose: 50.0 mg/kg/injection, schedule: Q04DX003 (ip), vehicle: Klucel (hydroxypropylcellulose) (HPC)); 91 % of control under setting [1]; 95 % of control under setting [2].

In the case of `O=c1ncccn1[C@@H]1O[C@H](CO)[C@H](O)C1O` (some centres not stated), the T/C was 114 % of control and 109 % of control (endpoint: median survival time, dose: 25.0 mg/kg/injection, schedule: Q01DX009 (ip), vehicle: saline); 102 % of control (endpoint: median survival time, dose: 75.0 mg/kg/injection, schedule: Q04DX003 (ip), vehicle: saline); 102 % of control (endpoint: median survival time, dose: 100.0 mg/kg/injection, schedule: Q01DX009 (oral), vehicle: saline); 101 % of control (endpoint: median survival time, dose: 125.0 mg/kg/injection, schedule: Q01DX001 (oral), vehicle: saline); 106 % of control (endpoint: median survival time, dose: 150.0 mg/kg/injection, schedule: Q04DX003 (ip), vehicle: saline); 110 % of control (endpoint: median survival time, dose: 200.0 mg/kg/injection, schedule: Q01DX009 (oral), vehicle: saline). Moreover, the T/C (endpoint: median survival time, dose: 250.0 mg/kg/injection, schedule: Q01DX001 (oral), vehicle: saline) was 102 % of control; the T/C (endpoint: median survival time, dose: 300.0 mg/kg/injection, schedule: Q04DX003 (ip), vehicle: saline) is 111 % of control; the T/C (endpoint: median survival time, dose: 500.0 mg/kg/injection, schedule: Q01DX001 (oral), vehicle: saline) is 105 % of control; the T/C (endpoint: median survival time, dose: 600.0 mg/kg/injection, schedule: Q04DX003 (ip), vehicle: saline) is 114 % of control; the T/C (endpoint: median survival time, dose: 800.0 mg/kg/injection, schedule: Q01DX009 (oral), vehicle: saline) was 177 % of control; the T/C (endpoint: median survival time, dose: 1000.0 mg/kg/injection, schedule: Q01DX001 (oral), vehicle: saline) was 107 % of control. For the same compound, the T/C (endpoint: median survival time, dose: 1200.0 mg/kg/injection, schedule: Q04DX003 (ip), vehicle: saline) was 113 % of control; the T/C (endpoint: median survival time, dose: 1600.0 mg/kg/injection, schedule: Q01DX009 (oral), vehicle: saline) was 212 % of control; the T/C (endpoint: median survival time, dose: 2000.0 mg/kg/injection, schedule: Q01DX001 (oral), vehicle: saline) is 115 % of control.
